Drawing on publication PMC12136037, “Type II kinase inhibitors that target Parkinson’s disease–associated LRRK2” (Science Advances, 2025), this text covers dTm for 17 compounds.

The structures appear in SMILES notation.

What all share (assay): DSF 100 kinase selectivity screen;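 also: compound tested at 20 µM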
Holding throughout (format): binding

Assay [1] deals with T1, ~100 representative kinases (Homo sapiens, UniProt Q8TD08).
T1 construct: Recombinant protein kinase domains with a concentration of 2 μM
T1 sequence (Q8TD08 1-544): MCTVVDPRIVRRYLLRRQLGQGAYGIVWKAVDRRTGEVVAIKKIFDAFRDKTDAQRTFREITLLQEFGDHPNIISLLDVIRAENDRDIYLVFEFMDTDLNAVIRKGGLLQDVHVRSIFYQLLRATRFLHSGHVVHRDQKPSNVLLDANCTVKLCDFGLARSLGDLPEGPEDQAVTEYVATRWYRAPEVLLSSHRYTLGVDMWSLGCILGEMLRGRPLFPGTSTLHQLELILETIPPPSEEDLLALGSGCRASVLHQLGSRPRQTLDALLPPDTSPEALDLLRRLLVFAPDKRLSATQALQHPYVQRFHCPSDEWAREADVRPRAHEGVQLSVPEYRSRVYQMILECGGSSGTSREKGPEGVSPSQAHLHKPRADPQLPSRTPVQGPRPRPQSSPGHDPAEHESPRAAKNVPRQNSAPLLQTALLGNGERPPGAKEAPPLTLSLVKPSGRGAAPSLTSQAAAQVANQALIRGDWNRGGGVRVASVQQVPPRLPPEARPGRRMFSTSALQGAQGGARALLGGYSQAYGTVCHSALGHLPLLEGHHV
The settings on record: protein MAPK15; average of three replicates. Summed up:
(§1)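 Each kinase domain, at 2 μM, is mixed with 20 μM test compound and SYPRO Orange in Hepes (20 mM, pH 7.5) with 500 mM NaCl. Temperature is then raised at 3°C/min and fluorescence-monitored unfolding yields the melting temperature change, ΔTm in degrees Celsius.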

For assay [2], the target named is T2, ~100 representative kinases (Homo sapiens, UniProt Q13557).
T2 construct: Recombinant protein kinase domains with a concentration of 2 μM
T2 sequence (Q13557 whole entry, the tested form may be a part): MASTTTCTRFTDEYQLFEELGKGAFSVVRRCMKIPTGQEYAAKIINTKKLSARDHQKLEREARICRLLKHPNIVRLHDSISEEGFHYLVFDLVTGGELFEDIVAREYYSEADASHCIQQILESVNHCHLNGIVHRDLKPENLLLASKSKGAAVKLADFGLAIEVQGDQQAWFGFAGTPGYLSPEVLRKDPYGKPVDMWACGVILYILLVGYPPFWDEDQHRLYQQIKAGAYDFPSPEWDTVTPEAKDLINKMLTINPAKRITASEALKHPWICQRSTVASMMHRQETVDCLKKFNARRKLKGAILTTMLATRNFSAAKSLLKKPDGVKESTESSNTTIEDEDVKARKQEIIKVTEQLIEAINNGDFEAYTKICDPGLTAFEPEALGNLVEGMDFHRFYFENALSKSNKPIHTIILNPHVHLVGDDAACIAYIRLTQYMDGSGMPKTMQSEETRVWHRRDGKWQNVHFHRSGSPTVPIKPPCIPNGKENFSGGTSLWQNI
The note with it: Protein CAMK2D; average of three replicates. Summed up: as §1

In assay [3] the target is T3, ~100 representative kinases (Homo sapiens, UniProt P55201).
T3 construct: Recombinant protein kinase domains with a concentration of 2 μM
T3 sequence (P55201 1-1214): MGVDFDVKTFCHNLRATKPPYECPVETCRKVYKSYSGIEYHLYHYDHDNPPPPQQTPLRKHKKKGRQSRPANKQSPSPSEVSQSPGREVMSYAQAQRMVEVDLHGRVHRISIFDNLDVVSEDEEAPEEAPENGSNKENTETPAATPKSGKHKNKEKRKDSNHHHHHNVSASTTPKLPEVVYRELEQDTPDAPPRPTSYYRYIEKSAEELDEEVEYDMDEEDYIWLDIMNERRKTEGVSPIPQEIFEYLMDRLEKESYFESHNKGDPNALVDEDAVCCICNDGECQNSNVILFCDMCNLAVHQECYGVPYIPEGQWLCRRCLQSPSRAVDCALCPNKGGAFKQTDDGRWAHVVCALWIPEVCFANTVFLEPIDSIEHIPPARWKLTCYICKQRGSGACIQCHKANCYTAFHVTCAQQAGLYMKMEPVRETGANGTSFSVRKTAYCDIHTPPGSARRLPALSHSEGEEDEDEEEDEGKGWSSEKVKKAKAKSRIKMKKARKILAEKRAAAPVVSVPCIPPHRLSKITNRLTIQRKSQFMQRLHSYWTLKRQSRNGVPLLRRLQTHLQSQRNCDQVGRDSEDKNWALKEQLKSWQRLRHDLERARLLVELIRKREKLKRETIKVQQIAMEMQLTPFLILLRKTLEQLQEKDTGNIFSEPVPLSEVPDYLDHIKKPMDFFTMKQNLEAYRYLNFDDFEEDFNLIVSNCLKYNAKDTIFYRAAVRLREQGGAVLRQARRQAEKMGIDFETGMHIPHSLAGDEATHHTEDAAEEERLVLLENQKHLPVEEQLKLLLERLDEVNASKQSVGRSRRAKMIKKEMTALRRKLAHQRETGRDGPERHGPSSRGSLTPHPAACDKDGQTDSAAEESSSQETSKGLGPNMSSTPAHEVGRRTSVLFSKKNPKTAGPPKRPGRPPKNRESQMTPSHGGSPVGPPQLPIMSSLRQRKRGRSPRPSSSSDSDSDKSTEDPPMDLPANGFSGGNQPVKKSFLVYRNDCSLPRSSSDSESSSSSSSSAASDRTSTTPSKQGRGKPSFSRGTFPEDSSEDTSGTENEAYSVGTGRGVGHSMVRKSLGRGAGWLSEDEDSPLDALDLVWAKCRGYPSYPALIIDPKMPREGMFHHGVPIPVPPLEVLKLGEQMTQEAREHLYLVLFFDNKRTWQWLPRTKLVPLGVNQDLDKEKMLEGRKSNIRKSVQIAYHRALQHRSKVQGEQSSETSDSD
The settings on record: Protein BRPF1; average of three replicates. Summed up: as §1

In assay [4] the target is T4, ~100 representative kinases (Homo sapiens, UniProt P33981).
T4 construct: Recombinant protein kinase domains with a concentration of 2 μM
T4 sequence (P33981 1-857): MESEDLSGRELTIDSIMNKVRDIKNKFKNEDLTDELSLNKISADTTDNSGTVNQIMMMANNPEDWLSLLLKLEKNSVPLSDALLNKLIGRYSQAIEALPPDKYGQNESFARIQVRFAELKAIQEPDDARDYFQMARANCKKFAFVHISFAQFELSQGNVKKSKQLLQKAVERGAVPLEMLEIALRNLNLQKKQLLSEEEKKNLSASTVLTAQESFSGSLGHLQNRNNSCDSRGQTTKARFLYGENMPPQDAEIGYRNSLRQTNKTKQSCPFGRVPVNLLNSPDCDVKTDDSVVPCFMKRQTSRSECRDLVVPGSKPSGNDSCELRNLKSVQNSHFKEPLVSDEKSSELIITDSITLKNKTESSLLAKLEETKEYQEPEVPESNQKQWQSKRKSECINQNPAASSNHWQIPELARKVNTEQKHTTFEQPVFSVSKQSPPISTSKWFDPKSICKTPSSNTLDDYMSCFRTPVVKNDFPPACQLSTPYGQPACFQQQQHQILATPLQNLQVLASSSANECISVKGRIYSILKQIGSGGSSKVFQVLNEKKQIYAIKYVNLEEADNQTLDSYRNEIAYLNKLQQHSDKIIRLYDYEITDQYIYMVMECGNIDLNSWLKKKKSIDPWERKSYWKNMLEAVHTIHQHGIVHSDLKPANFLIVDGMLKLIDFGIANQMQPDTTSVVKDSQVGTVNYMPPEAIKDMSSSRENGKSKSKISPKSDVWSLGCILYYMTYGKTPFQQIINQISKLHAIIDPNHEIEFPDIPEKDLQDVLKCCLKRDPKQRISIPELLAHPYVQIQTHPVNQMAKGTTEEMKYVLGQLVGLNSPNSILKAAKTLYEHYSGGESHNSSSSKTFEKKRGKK
The note with it: Protein TTK; DSF; average of three replicates. In outline: as §1

For assay [5], the target named is T5, ~100 representative kinases (Homo sapiens, UniProt Q96NX5).
T5 construct: Recombinant protein kinase domains with a concentration of 2 μM
T5 sequence (Q96NX5 whole entry, the tested form may be a part): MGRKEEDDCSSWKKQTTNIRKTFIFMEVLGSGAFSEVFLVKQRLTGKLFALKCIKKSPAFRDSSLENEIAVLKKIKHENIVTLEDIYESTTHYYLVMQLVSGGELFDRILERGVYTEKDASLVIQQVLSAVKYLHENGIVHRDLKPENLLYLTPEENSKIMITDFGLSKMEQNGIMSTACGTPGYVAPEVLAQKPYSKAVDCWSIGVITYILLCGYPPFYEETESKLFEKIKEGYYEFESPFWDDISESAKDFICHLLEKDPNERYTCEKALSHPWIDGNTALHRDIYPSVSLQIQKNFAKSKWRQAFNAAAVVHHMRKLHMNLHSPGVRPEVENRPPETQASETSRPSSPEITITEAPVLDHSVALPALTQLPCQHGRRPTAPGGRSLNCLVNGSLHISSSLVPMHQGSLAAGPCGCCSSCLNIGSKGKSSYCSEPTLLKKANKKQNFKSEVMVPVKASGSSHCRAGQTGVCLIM
The note with it: Protein CAMK1G; average of three replicates. In outline:
as §1

Turning to `O=C(Nc1cccc(-c2c[nH]c3ncnc(N4CCOCC4)c23)c1)C1(C(=O)Nc2ccc(F)c(Cl)c2)CC1` [Compound 18], the dTm worked out at 12.35 K in assay [1]; 0.66 K in assay [2]; 1.47 K in assay [3]; 8.02 K in assay [4]; 3.39 K in assay [5].
The like results for `CCc1ccc(NC(=O)C2(C(=O)Nc3cccc(-c4c[nH]c5ncnc(N6CCOCC6)c45)c3)CC2)cc1` [Compound 15] were, in that order, 5.20 K, 0.37 K, -0.75 K, 6.77 K and 1.75 K.
In the case of `CCNc1nc(Nc2cc(F)c(C(=O)N3CCOCC3)cc2OC)ncc1C(F)(F)F` [GNE-7915], the dTm in assay [1] is 2.03 K; in assay [2], -0.06 K; in assay [3], -1.14 K; in assay [4], 6.53 K; in assay [5], 0.32 K.
The like results for `O=C(Nc1cccc(-c2c[nH]c3ncnc(N4CCOCC4)c23)c1)c1cccn(-c2ccc(F)cc2)c1=O` [Compound 4] were, in that order, 7.29 K, -0.31 K, -1.48 K, 3.00 K and 1.22 K.
Take `Cc1ccc(C(=O)Nc2ccc(CN3CCN(C)CC3)c(C(F)(F)F)c2)cc1C#Cc1cnc2[nH]ncc2c1` [GZD-824, reference compound]: the dTm in assay [1] is recorded as 5.29 K; in assay [2], -0.21 K; in assay [3] it was -0.65 K; in assay [4] it was 4.08 K; in assay [5] it was 0.14 K.
The like results for `O=C(Nc1ccccc1)C1(C(=O)Nc2cccc(-c3c[nH]c4ncnc(N5CCOCC5)c34)c2)CC1` [Compound 12] were, in that order, 8.68 K, 0.39 K, -0.42 K, 7.12 K and 1.89 K.
Take `Cc1ccc(C(=O)Nc2ccc(CN3CCN(C)CC3)c(C(F)(F)F)c2)cc1C#Cc1c[nH]c2ncnc(N3CCOCC3)c12` [Compound 1]: the dTm in assay [1] was 8.49 K; in assay [2], 0.30 K; in assay [3] it was -0.28 K; in assay [4], 0.00 K; in assay [5] it was 2.40 K.
`Cc1cc(F)ccc1NC(=O)C1(C(=O)Nc2cccc(-c3c[nH]c4ncnc(N5CCOCC5)c34)c2)CC1` [Compound 24]: the dTm is recorded as 4.07 K in assay [1]; -0.18 K in assay [2]; -0.10 K in assay [3]; 2.46 K in assay [4]; 0.49 K in assay [5].
The like results for `O=C(Nc1cc(F)cc(Br)c1)C1(C(=O)Nc2cccc(-c3c[nH]c4ncnc(N5CCOCC5)c34)c2)CC1` [Compound 27] were, in that order, 4.52 K, 0.42 K, 2.67 K, 4.57 K and 3.15 K.
The like results for `O=C(Nc1ccc(Cl)cc1)C1(C(=O)Nc2cccc(-c3c[nH]c4ncnc(N5CCOCC5)c34)c2)CC1` [Compound 13] were, in that order, 9.74 K, 1.12 K, -0.65 K, 6.50 K and 3.50 K.
With `COc1cc(S(C)(=O)=O)ccc1Nc1nc(N(C)C)c2c(Cl)c[nH]c2n1` [Compound 37], the dTm in assay [1] is given as -0.10 K; in assay [2], 0.41 K; in assay [3] it was -0.21 K; in assay [4], 7.87 K; in assay [5], 1.99 K.
The like results for `O=C(Nc1cccc(-c2c[nH]c3ncnc(N4CCOCC4)c23)c1)C1(C(=O)Nc2ccc(F)c(F)c2)CC1` [Compound 17] were, in that order, 10.37 K, 0.36 K, 0.79 K, 6.18 K and 2.10 K.
On to `CNC(=O)c1cc(Oc2ccc(NC(=O)Nc3cc(C(C)(C)C)nn3-c3ccc4ncccc4c3)c(F)c2)ccn1` [Rebastinib, reference compound], for which the dTm is recorded as 14.70 K in assay [1], 2.16 K in assay [2], 1.88 K in assay [3] and 8.07 K in assay [4].
For the compound `O=C(Nc1cccc(-c2c[nH]c3ncnc(N4CCOCC4)c23)c1)C1(C(=O)Nc2cc(Br)c(F)cc2F)CC1` [Compound 25], the dTm in assay [1] is given as 3.06 K; in assay [2], 1.32 K; in assay [3], 1.93 K; in assay [4] it was 5.98 K; in assay [5], 4.91 K.
Turning to `CC(C)(C)c1cc(NC(=O)Nc2cccc(-c3c[nH]c4ncnc(N5CCOCC5)c34)c2)n(-c2ccc3ncccc3c2)n1` [Compound 28], the dTm in assay [1] stood at 14.38 K; in assay [2], 0.51 K; in assay [3] it was 0.57 K; in assay [4], 7.28 K; in assay [5], 6.01 K.
Consider `COc1cc(C(=O)N2CCOCC2)c(F)cc1Nc1nc(N(C)C)c2c(Cl)c[nH]c2n1` [Compound 36], for which the dTm is 0.97 K in assay [1]; 3.01 K in assay [2]; -1.63 K in assay [3]; 10.39 K in assay [4]; 4.24 K in assay [5].
As for `Cc1ccc(C(=O)Nc2ccc(CN3CCN(C)CC3)c(C(F)(F)F)c2)cc1C#Cc1cnc2cccnn12` [Ponatinib, reference compound], the dTm in assay [5] is listed as 1.16 K.
